According to patent US20230391772A1, “METHODS AND COMPOSITIONS FOR TARGETED PROTEIN DEGRADATION” (Ranok Therapeutics (Hangzhou) Co. Ltd., priority 2020, published 2023):

Assays:
[1] = tested on: MIA PaCa-2 human pancreatic carcinoma; experiment: MIA PaCa-2 CCK-8 proliferation assay; format: cell-based; conditions: Homo sapiens, MIA PaCa-2, 72 h, MIA PaCa-2 cells
Procedure, shortened: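 CCK-8 absorbance readout; % inhibition = 100 − (compound − blank)/(DMSO − blank) × 100, blank = medium + DMSO, no cells. Dose range 20 μM down to 1.02 nM, 3-fold steps. KRAS(G12C) copy number: MIA PaCa-2 2; NCI-H358 1; NCI-H23 1.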

KRAS(G12C) = KRAS(G12C) (Homo sapiens, UniProt P01116, G12C); experiment: KRAS(G12C)/SOS1 homogeneous time-resolved fluorescence (HTRF) assay; parameters: purchased Cisbio 63ADK000CB16PEG; conditions: absence of GTP, 4° C. for 3 hr, read-out: KRAS (G12C) binding
Procedure, shortened: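 Three-hour incubation at 4 °C of 3-fold compound dilutions (lowest 1.02 nM) with KRAS(G12C), SOS1 and detection reagents, GTP absent. Disruption of the KRAS(G12C)/SOS1 complex detected by time-resolved fluorescence.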

HSP90a protein = molecular target: T1, HSP90a protein (Homo sapiens, UniProt P07900); experiment: HSP90α-binding fluorescent polarization (FP) assay, BODIPY-labeled RNK04010 probe; conditions: FP competition with RNK04010 (BODIPY-labeled), 5 nM, 300 min at 25° C.
T1 construct: purchased BPS Bioscience 50298
Procedure, shortened: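 Compound dilutions (20 μM to 5.2 nM, 2.5-fold) are combined with 5 nM final labeled probe, and HSP90a N-terminal protein is added last. Plates are shaken briefly and held at 25° C for 120 min (FITC-geldanamycin) or 300 min (BODIPY-RNK04010), then FP is measured.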

Chain of KRAS(G12C) (P01116 1-188 isoform P01116-2 G12C): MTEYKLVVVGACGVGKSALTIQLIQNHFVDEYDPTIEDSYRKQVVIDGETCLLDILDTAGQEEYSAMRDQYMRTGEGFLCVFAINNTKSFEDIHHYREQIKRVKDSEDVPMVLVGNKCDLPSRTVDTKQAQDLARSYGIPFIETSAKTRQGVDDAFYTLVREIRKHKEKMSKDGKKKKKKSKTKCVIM

SMILES	EC50 [1] [nM]	IC50 (KRAS(G12C)) [nM]	IC50 (HSP90a protein) [nM]
C=CC(=O)N1CCN(c2nc(OC[C@@H]3C[C@@H](NC(=O)C4CCN(Cc5ccc(-n6c(O)nnc6-c6cc(C)c(O)cc6O)cc5)CC4)CN3C)nc3c2CCN(c2cccc4cccc(Cl)c24)C3)C[C@@H]1CC#N [Compound 198, N-((3R,5S)-5-(((4-((S)-4-acryloyl-3-(cyanomethyl)piperazin-1-yl)-7-(8-chloronaphthalen-1-yl)-5,6,7,8-tetrahydropyrido[3,4-d]pyrimidin-2-yl)oxy)methyl)-1-methylpyrrolidin-3-yl)-1-(4-(3-(2,4-dihydroxy-5-methylphenyl)-5-hydroxy-4H-1,2,4-triazol-4-yl)benzyl)piperidine-4-carboxamide, trifluoroacetic acid]	100 to 1000	100 to 1000	< 100
C=CC(=O)N1CCN(c2nc(OCCN3CCN(Cc4cc(C(C)C)c(O)cc4O)CC3)nc3c2CCN(c2cccc4cccc(Cl)c24)C3)C[C@@H]1CC#N [Compound 216, (S)-2-(1-acryloyl-4-(7-(8-chloronaphthalen-1-yl)-2-(2-(4-(2,4-dihydroxy-5-isopropylbenzyl)piperazin-1-yl)ethoxy)-5,6,7,8-tetrahydropyrido[3,4-d]pyrimidin-4-yl)piperazin-2-yl)acetonitrile]	100 to 1000	< 100	100 to 1000
C=CC(=O)N1CCN(c2nc(OCCN3CCC4(CC3)CCN(C(=O)C3CCN(Cc5ccc(-n6c(C(=O)NCC(F)(F)F)nnc6-c6cc(C(C)C)c(O)cc6O)cc5)CC3)CC4)nc3c2CCN(c2cccc4cccc(Cl)c24)C3)C[C@@H]1CC#N [Compound 209, (S)-4-(4-((4-(9-(2-((4-(4-acryloyl-3-(cyanomethyl)piperazin-1-yl)-7-(8-chloronaphthalen-1-yl)-5,6,7,8-tetrahydropyrido[3,4-d]pyrimidin-2-yl)oxy)ethyl)-3,9-diazaspiro[5.5]undecane-3-carbonyl)piperidin-1-yl)methyl)phenyl)-5-(2,4-dihydroxy-5-isopropylphenyl)-N-(2,2,2-trifluoroethyl)-4H-1,2,4-triazole-3-carboxamide]	< 100	< 100	< 100
CCC(=O)N1CCN(c2nc(OCCN3CCN(C(=O)C4CCN(Cc5ccc(-n6c(C(=O)NCC(F)(F)F)nnc6-c6cc(C(C)C)c(O)cc6O)cc5)CC4)CC3)nc3c2CCN(c2cccc4cccc(Cl)c24)C3)C[C@@H]1CC#N [Compound 208, (S)-4-(4-((4-(4-(2-((7-(8-chloronaphthalen-1-yl)-4-(3-(cyanomethyl)-4-propionylpiperazin-1-yl)-5,6,7,8-tetrahydropyrido[3,4-d]pyrimidin-2-yl)oxy)ethyl)piperazine-1-carbonyl)piperidin-1-yl)methyl)phenyl)-5-(2,4-dihydroxy-5-isopropylphenyl)-N-(2,2,2-trifluoroethyl)-4H-1,2,4-triazole-3-carboxamide]	< 100	> 1000	< 100
C=CC(=O)N1CCN(c2nc(OC[C@@H]3C[C@H](N4CCC(C(=O)N5CCN(Cc6ccc(-n7c(O)nnc7-c7cc(C(C)C)c(O)cc7O)cc6)CC5)CC4)CN3C)nc3c2CCN(c2cccc4cccc(Cl)c24)C3)C[C@@H]1CC#N [Compound 317, 2-[(2S)-4-[7-(8-chloronaphthalen-1-yl)-2-{[(2S,4S)-4-{4-[4-({4-[3-(2,4-dihydroxy-5-isopropylphenyl)-5-hydroxy-1,2,4-triazol-4-yl]phenyl}methyl)piperazine-1-carbonyl]piperidin-1-yl}-1-methylpyrrolidin-2yl]methoxy}-5H,6H,8H-pyrido[3,4-d]pyrimidin-4-yl]-1-(prop-2-enoyl)piperazin-2-yl]acetonitrile]	100 to 1000	< 100	< 100
C=CC(=O)N1CCN(c2nc(OC[C@@H]3C[C@H](NC(=O)C4CCN(C(=O)C5CCN(Cc6ccc(-n7c(O)nnc7-c7cc(C)c(O)cc7O)cc6)CC5)CC4)CN3C)nc3c2CCN(c2cccc4cccc(Cl)c24)C3)C[C@@H]1CC#N [Compound 312, N-[(3S,5S)-5-({[7-(8-chloronaphthalen-1-yl)-4-[(3S)-3-(cyanomethyl)-4-(prop-2-e-noyl)piperazin-1-yl]-5H,6H,8H-pyrido[3,4-d]pyrimidin-2-yl]oxy}methyl)-1-meth-ylpyrrolidin-3-yl]-1-[1-({4-[3-(2,4-dihydroxy-5-methylphenyl)-5-hydroxy-1,2,4-triazol-4-yl]phenyl}methyl)piperidine-4-carbonyl]piperidine-4-carboxamide]	> 1000	< 100	< 100
C=CC(=O)N1CCN(c2nc(OC[C@@H]3C[C@@H](OC(=O)N4CCN(Cc5ccc(-n6c(O)nnc6-c6cc(CC)c(O)cc6O)cc5)CC4)CN3C)nc3c2CCN(c2cccc4cccc(Cl)c24)C3)C[C@@H]1CC#N [Compound 294, (3R,5S)-5-(((4-((S)-4-acryloyl-3-(cyanomethyl)piperazin-1-yl)-7-(8-chloronaphthalen-1-yl)-5,6,7,8-tetrahydropyrido[3,4-d]pyrimidin-2-yl)oxy)methyl)-1-methylpyrrolidin-3-yl 4-(4-(3-(5-ethyl-2,4-dihydroxyphenyl)-5-hydroxy-4H-1,2,4-triazol-4-yl)benzyl)piperazine-1-carboxylate]	> 1000	> 1000	< 100
C=CC(=O)N1CCN(c2nc(OCC3CN(C(=O)c4ccc(-n5c(O)nnc5-c5cc(C(C)C)c(O)cc5O)cc4)C3)nc3c2CCN(c2cccc4cccc(Cl)c24)C3)C[C@@H]1CC#N [Compound 221, (S)-2-(1-acryloyl-4-(7-(8-chloronaphthalen-1-yl)-2-((1-(4-(3-(2,4-dihydroxy-5-isopropylphenyl)-5-hydroxy-4H-1,2,4-triazol-4-yl)benzoyl)azetidin-3-yl)methoxy)-5,6,7,8-tetrahydropyrido[3,4-d]pyrimidin-4-yl)piperazin-2-yl)acetonitrile]	> 1000	> 1000	< 100
C=CC(=O)N1CCN(c2nc(OC[C@@H]3C[C@H](NC(=O)C4CCN(C(=O)c5ccc(-n6c(O)nnc6-c6cc(C(C)C)c(O)cc6O)cc5)CC4)CN3C)nc3c2CCN(c2cccc4cccc(Cl)c24)C3)C[C@@H]1CC#N [Compound 315, N-[(3S,5S)-5-({[7-(8-chloronaphthalen-1-yl)-4-[(3S)-3-(cyanomethyl)-4-(prop-2-enoyl)piperazin-1-yl]-5H,6H,8H-pyrido[3,4-d]pyrimidin-2-yl]oxy}methyl)-1-methylpyrrolidin-3-yl]-1-{4-[3-(2,4-dihydroxy-5-isopropylphenyl)-5-hydroxy-1,2,4-triazol-4-yl]benzoyl}piperidine-4-carboxamide]	> 1000	< 100	< 100
C=CC(=O)N1CCN(c2nc(OCCN3CCN(C(=O)C4CCN(Cc5ccc(-n6c(C(=O)NCC(F)(F)F)nnc6-c6cc(C)c(O)cc6O)cc5)CC4)CC3)nc3c2CCN(c2cccc4cccc(Cl)c24)C3)C[C@@H]1CC#N [Compound 222, (S)-4-(4-((4-(4-(2-((4-(4-acryloyl-3-(cyanomethyl)piperazin-1-yl)-7-(8-chloronaphthalen-1-yl)-5,6,7,8-tetrahydropyrido[3,4-d]pyrimidin-2-yl)oxy)ethyl)piperazine-1-carbonyl)piperidin-1-yl)methyl)phenyl)-5-(2,4-dihydroxy-5-methylphenyl)-N-(2,2,2-trifluoroethyl)-4H-1,2,4-triazole-3-carboxamide]	100 to 1000	100 to 1000	< 100
C=CC(=O)N1CCN(c2nc(OC[C@@H]3CC[C@H](CN4CCN(C(=O)C5CCN(Cc6ccc(-n7c(O)nnc7-c7cc(C(C)C)c(O)cc7O)cc6)CC5)CC4)N3C)nc3c2CCN(c2cccc4cccc(Cl)c24)C3)C[C@@H]1CC#N [Compound 313, 2-[(2S)-4-[7-(8-chloronaphthalen-1-yl)-2-{[(2S,5R)-5-({4-[1-({4-[3-(2,4-dihydroxy-5-isopropylphenyl)-5-hydroxy-1,2,4-triazol-4-yl]phenyl}methyl)piperidine-4-carbonyl]piperazin-1-yl}methyl)-1-methylpyrrolidin-2-yl]methoxy}-5H,6H,8H-pyrido [3,4-d]pyrimidin-4-yl]-1-(prop-2-enoyl)piperazin-2-yl]acetonitrile]	< 100	< 100	< 100
C=CC(=O)N1CCN(c2nc(OCC3CCC(CN4CCC(Cc5ccc(-n6c(C(=O)NCC(F)(F)F)nnc6-c6cc(C(C)C)c(O)cc6O)cc5)CC4)N3)nc3c2CCN(c2cccc4cccc(Cl)c24)C3)C[C@@H]1CC#N (stereo partly drawn) [Compound 298, 4-(4-((1-((5-(((4-((S)-4-acryloyl-3-(cyanomethyl)piperazin-1-yl)-7-(8-chloronaphthalen-1-yl)-5,6,7,8-tetrahydropyrido[3,4-d]pyrimidin-2-yl)oxy)methyl)pyrrolidin-2-yl)methyl)piperidin-4-yl)methyl)phenyl)-5-(2,4-dihydroxy-5-isopropylphenyl)-N-(2,2,2-trifluoroethyl)-4H-1,2,4-triazole-3-carboxamide]	100 to 1000	> 1000	< 100
